US4345938A, “Herbicidal 2-haloacetanilides” (Monsanto Company, priority 1980, dated 1982)
Like-named read-outs stand apart in the source and are kept apart here.

Tests used:
Format in all cases: in vivo
Monochoria vaginalis [1] = assay: Greenhouse transplant rice test, MV; conditions: Pontederia vaginalis, about 3 WAT, read-out: Percent Inhibition, MV
Source text: The test procedure used in this greenhouse test is as follows: Ray silt loam top soil containing about 0.05% by weight of krillium and sifted through a […] screen is fumigated about 5-10 days prior to use. Pots are then filled with said Ray silt loam soil to a level to allow for a 1 in. (2.54 cm) flooding depth. Rice plants (Bluebelle) of 2 to 3 weeks age are transplanted to the pots and bulbs or seeds of the test weeds also planted in the pots. The pots are then flooded and the test chemical applied to the surface of the flood water. The flood water is reduced to allow for germination of the Echinochloa crus-galli (barnyardgrass) seed and subsequently reflooded and maintained in that condition. Observations of percent inhibition using a scale of 0-100% are made about 3 weeks after transplant (WAT).
(§1) The test data in Table III for all compounds was obtained under identical test conditions. The weeds used in the tests herein have the following abbreviations in the tables: Echinochloa crus-galli (EC), Monochloria vaginalis (MV), Cyperus Serotinus (CS), Eleocharis Kuroguwai (EK) and Sagittaria trifolia (ST).

Rice = assay: Field transplant rice test, applied 0 DAT, rice injury; conditions: Oryza sativa, 0 h, read-out: Percent Inhibition, Rice; for inhibition at 375 g/ha: 0.375 Kg/Ha; for inhibition at 750 g/ha: 0.75 Kg/Ha; for inhibition at 1500 g/ha: 1.5 Kg/Ha; for inhibition at 3000 g/ha: 3.0 Kg/Ha
Procedure: (§2) In further comparative tests, a preferred compound of this invention (Example 1) was tested in the field with prior art Compounds A-D. These tests were conducted under conditions reflecting herbicide application times generally favorable to all herbicides in the test. The timing of application of herbicides to transplant rice is very important, whether, as in some instances, prior to transplanting the rice; in other instances, at the time of transplanting or else after transplanting. Application times are conventionally referred to as "days before transplant" (DBT) or "days after transplant" ("DAT"). The field test data in Table IV was obtained from a test in which the herbicides were applied at the time of transplant, i.e., "0 DAT", with observations being made weekly up to six weeks after transplant ("WAT") beginning at two weeks after transplant; for illustrative and representative purposes, only the early, middle and late period observations, i.e., 2 WAT, 4 WAT and 6 WAT, are shown in Table IV. The data in Table IV is for rates of application common to all herbicides in the test, i.e., from 3.0 kg/ha (2.67 lb/A) down to 0.375 kg/ha (0.34 lb/A). All herbicides were applied at their actual or expected use rates, i.e., as granules containing 2.5% by weight herbicide for the compound of Example 1, Compounds B, C and D and 5.0% by weight for Compound A.

Monochoria vaginalis [2] = assay: Field transplant rice test, applied 0 DAT, MV; conditions: Pontederia vaginalis, 0 h, read-out: Percent Inhibition, MV; for inhibition at 375 g/ha: 0.375 Kg/Ha; for inhibition at 750 g/ha: 0.75 Kg/Ha; for inhibition at 1500 g/ha: 1.5 Kg/Ha; for inhibition at 3000 g/ha: 3.0 Kg/Ha
Procedure: as §1, §2

Cyperus serotinus = assay: Field transplant rice test, applied 0 DAT, CS; conditions: 0 h, read-out: Percent Inhibition, CS; for inhibition at 375 g/ha: 0.375 Kg/Ha; for inhibition at 750 g/ha: 0.75 Kg/Ha; for inhibition at 1500 g/ha: 1.5 Kg/Ha; for inhibition at 3000 g/ha: 3.0 Kg/Ha
Procedure: as §1, §2

Eleocharis kuroguwai [3] = assay: Field transplant rice test, applied 0 DAT, EK; conditions: 0 h, read-out: Percent Inhibition, EK; for inhibition at 375 g/ha: 0.375 Kg/Ha; for inhibition at 750 g/ha: 0.75 Kg/Ha; for inhibition at 1500 g/ha: 1.5 Kg/Ha; for inhibition at 3000 g/ha: 3.0 Kg/Ha
Procedure: as §1, §2

Eleocharis kuroguwai [4] = assay: Field transplant rice test, applied 9 DAT, EK; conditions: for inhibition at 375 g/ha / inhibition at 750 g/ha / inhibition at 1500 g/ha / inhibition at 3000 g/ha: Eleocharis kuroguwai, 216 h, read-out: Percent Inhibition, EK; for inhibition at 375 g/ha: 0.375 Kg/Ha; for inhibition at 750 g/ha: 0.75 Kg/Ha; for inhibition at 1500 g/ha: 1.5 Kg/Ha; for inhibition at 3000 g/ha: 3.0 Kg/Ha
Source text: In the discussion of data below, occasional reference is made to herbicide application rates symbolized as "GR15 " and "GR85 "; these rates are given in kilograms per hectare (kg/ha) which are convertible into pounds per acre (lbs/A) by dividing the kg/ha rate by 1.12.
A further guide to the effectiveness of a chemical as a selective herbicide is the "selectivity factor" ("SF") for a herbicide in given crops and weeds. The selectivity factor is a measure of the relative degree of crop safety and weed injury and is expressed in terms of the GR15 /GR85 ratio, i.e., the GR15 rate for the crop divided by the GR85 rate for the weed, both rates in kg/ha (lb/A.)
as §1, §2
In Table V are presented field data showing the relative performance of the compound of Example 1 and Compounds A-D applied 9 DAT, with observations being made weekly from 3 WAT to 7 WAT; again, for illustrative and representative purposes, only the early, middle and late period observations are reported in Table V, the herbicide rates and concentrations of active ingredients the same as is shown in Table IV.

## CCCCOCN(C(=O)CCl)c1c(CC)cccc1CC [Compound A, 2',6'-diethyl-N-(n-butoxymethyl)-2-chloroacetanilide]
Monochoria vaginalis [1]; 0.28 Kg/Ha
  inhibition at 280 g/ha: 98%
Monochoria vaginalis [1]; 0.56 Kg/Ha
  inhibition at 560 g/ha: 100%
Monochoria vaginalis [1]; 1.12 Kg/Ha
  inhibition at 1120 g/ha: 100%
Monochoria vaginalis [1]; 2.24 Kg/Ha
  inhibition at 2240 g/ha: 100%
Rice; 2 WAT
  inhibition at 375 g/ha: 8%
  inhibition at 750 g/ha: 2%
  inhibition at 1500 g/ha: 8%
  inhibition at 3000 g/ha: 10%
Rice; 4 WAT
  inhibition at 375 g/ha: 10%
  inhibition at 750 g/ha: 0%
  inhibition at 1500 g/ha: 23%
  inhibition at 3000 g/ha: 2%
Rice; 6 WAT
  inhibition at 375 g/ha: 7%
  inhibition at 750 g/ha: 0%
  inhibition at 1500 g/ha: 5%
  inhibition at 3000 g/ha: 3%
Monochoria vaginalis [2]; 2 WAT
  inhibition at 375 g/ha: 98%
  inhibition at 750 g/ha: 100%
  inhibition at 1500 g/ha: 100%
  inhibition at 3000 g/ha: 100%
Monochoria vaginalis [2]; 4 WAT
  inhibition at 375 g/ha: 87%
  inhibition at 750 g/ha: 98%
  inhibition at 1500 g/ha: 100%
  inhibition at 3000 g/ha: 100%
Monochoria vaginalis [2]; 6 WAT
  inhibition at 375 g/ha: 82%
  inhibition at 750 g/ha: 100%
  inhibition at 1500 g/ha: 100%
  inhibition at 3000 g/ha: 100%
Cyperus serotinus; 2 WAT
  inhibition at 375 g/ha: 67%
  inhibition at 750 g/ha: 95%
  inhibition at 1500 g/ha: 90%
  inhibition at 3000 g/ha: 73%
Cyperus serotinus; 4 WAT
  inhibition at 375 g/ha: 67%
  inhibition at 750 g/ha: 93%
  inhibition at 1500 g/ha: 82%
  inhibition at 3000 g/ha: 68%
Cyperus serotinus; 6 WAT
  inhibition at 375 g/ha: 63%
  inhibition at 750 g/ha: 93%
  inhibition at 1500 g/ha: 77%
  inhibition at 3000 g/ha: 50%
Eleocharis kuroguwai [3]; 2 WAT
  inhibition at 375 g/ha: 65%
  inhibition at 750 g/ha: 45%
  inhibition at 1500 g/ha: 83%
  inhibition at 3000 g/ha: 90%
Eleocharis kuroguwai [3]; 4 WAT
  inhibition at 375 g/ha: 33%
  inhibition at 750 g/ha: 22%
  inhibition at 1500 g/ha: 78%
  inhibition at 3000 g/ha: 88%
Eleocharis kuroguwai [3]; 6 WAT
  inhibition at 375 g/ha: 10%
  inhibition at 750 g/ha: 0%
  inhibition at 1500 g/ha: 28%
  inhibition at 3000 g/ha: 68%
Eleocharis kuroguwai [4]; 3 WAT
  selectivity factor (GR15/GR85), EK in transplant rice: non-selective
  inhibition at 375 g/ha: 40%
  inhibition at 750 g/ha: 37%
  inhibition at 1500 g/ha: 55%
  inhibition at 3000 g/ha: 68%
Eleocharis kuroguwai [4]; 5 WAT
  inhibition at 375 g/ha: 22%
  inhibition at 750 g/ha: 12%
  inhibition at 1500 g/ha: 25%
  inhibition at 3000 g/ha: 40%
Eleocharis kuroguwai [4]; 7 WAT
  inhibition at 375 g/ha: 3%
  inhibition at 750 g/ha: 3%
  inhibition at 1500 g/ha: 0%
  inhibition at 3000 g/ha: 0%
